The values that follow come from patent US20240252488A1 (KOREA RESEARCH INSTITUTE OF CHEMICAL TECHNOLOGY, priority 2020, published 2024).

Assay [1] has as its target T1, MLKL (Homo sapiens, UniProt Q8NB16).
T1 sequence (Q8NB16 1-471): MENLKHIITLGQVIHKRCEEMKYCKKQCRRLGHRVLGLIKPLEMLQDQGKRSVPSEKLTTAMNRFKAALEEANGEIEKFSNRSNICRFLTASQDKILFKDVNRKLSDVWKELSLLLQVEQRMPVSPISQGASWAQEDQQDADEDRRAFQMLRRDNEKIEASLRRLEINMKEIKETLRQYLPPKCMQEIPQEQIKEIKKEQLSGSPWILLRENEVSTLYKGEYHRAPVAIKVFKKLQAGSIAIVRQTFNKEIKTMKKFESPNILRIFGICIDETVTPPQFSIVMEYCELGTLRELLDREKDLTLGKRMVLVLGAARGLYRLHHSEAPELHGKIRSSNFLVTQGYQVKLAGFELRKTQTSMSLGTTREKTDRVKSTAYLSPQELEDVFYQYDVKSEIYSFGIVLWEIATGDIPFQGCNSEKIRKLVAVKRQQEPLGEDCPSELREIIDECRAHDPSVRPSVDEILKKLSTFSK
Description: MLKL degradation assay in HepG2 cell line (western blot). The conditions noted are these: cell line not given; for Degradation assay (Degradation %) 1 μM: compound 1 μM; for Degradation assay (Degradation %) 10 μM: compound 10 μM. Format: cell-based. Also on record: endogenous in cells; host or cells: HepG2 or HaCaT. Here is the method:
MLKL degradation ability was evaluated in the following method.
1 mL of Human liver cancer cell line (HepG2 cell line) or human skin cell line (HaCaT cell line) was equally distributed into each well at 2.0×10^5 cells/mL in a 12-well cell culture plate. On the next day, the medium was replaced with a medium made so that the final concentration of test compound was 1 or 10 μM (1 mL/well), and incubated in 5% CO2, at 37° C. for 20-24 hours (Thermo scientific, Forma steri-cycle).
For protein preparation after incubation, cells were washed with 1×TBST, and 60 μL of RIPA lysis buffer containing Halt™ Protease and Phosphatase Inhibitor Cocktail was dispensed into each well. After scraping the cells with a scraper, the cells were recovered, and the pallet was homogenized and reacted on ice for 30 minutes. After the cells were centrifuged at 13,000 rpm, 10 minutes, 4° C., the supernatant was transferred to a new E-tube. For protein quantification, after dispensing sample and BCA (0-4 mg/ml) in a 96 well plate, 100 μL of BCA was dispensed and reacted in a 37° C. incubator for 30 minutes. After measuring the absorbance (SpectraMax, M5e, 562 nm), the amount of the sample was adjusted with the same concentration of protein and 4× Laemmli sample buffer, DW, and reacted at 100° C. for 5 minutes.
After assembling the MP TGX Precast Gel in the Mini-PROTEAN Tetra Cell, the same protein (10-15 μg) was added in an 8-10 μL volume per well, 1×Tris-Glycine Buffer was added, and loading was performed. After loading was completed, transfer was performed using Pierce G2 Fast Blotter and Pierce 1-Step Transfer Buffer. After completion of the transfer, 10 ml of SuperBlock™ Blocking Buffer was dispensed and reacted at room temperature for 10 minutes. 5% BSA containing the primary antibody was dispensed and reacted over night at 4° C. The next day, washing was performed three times with 1×TBST at room temperature for 10 minutes. 5% BSA containing the secondary antibody was dispensed and reacted at room temperature for 1 hour. Washing was performed three times with 1×TBST at room temperature for 10 minutes. The amount of protein expression was measured using chemiluminescence (LuminoGraph, ATTO).
(A western blot detects proteins with antibodies after separation by electrophoresis.)

For assay [2], the target named is T1, MLKL. Description: Measurement of binding affinity with MLKL receptor (competitive binding assay, Kd). Also on record: made in house; host or cells: HEK 293 cell line (T7 phage in E. coli BL21-derived host is also described). In a few lines:
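Kd comes from a bead-based competition format: compound-dependent loss of DNA-tagged, HEK 293-expressed MLKL capture, measured as eluate kinase by qPCR. Final DMSO is 0.9%.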

In the next assay the test system is FADD−/− Jurkat cells. Kind of assay: Necroptosis inhibition assay, TNF-α-induced necroptosis (CellTiter-Glo 2.0). It counts as cell-based, human. To be noted: TNF-α 15 ng/mL; for Necroptosis inhibition assay (Rescue %) 1 μM: compound 1 μM; for Necroptosis inhibition assay (Rescue %) 10 μM: compound 10 μM. The essentials: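 Cells at 5.0×10^5 cells/mL were pretreated with compound (final 0.1, 1 and 10 μM) for 30 minutes at room temperature, then given TNF-α at 15 ng/mL final. After 20 to 24 hours at 37° C, 5% CO2, viability was read as ATP luminescence to calculate cytotoxicity and necroptosis inhibition rate.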
For orientation: ATP-based viability assays read luminescence as a measure of living cells.

Take `Nc1ncc(-c2ccc(N3CCN(CCOCCOCCNC(=O)CNc4cccc5c4C(=O)N(C4CCC(=O)NC4=O)C5=O)CC3)nc2)nc1C(=O)OC(C(=O)Nc1ccc(F)cc1)c1ccccc1` (stereo not shown) [TDH-259, 2-((4-fluorophenyl)amino)-2-oxo-1-phenylethyl 3-amino-6-(6-(4-(2-(2-(2-(2-((2-(2,6-dioxopiperidin-3-yl)-1,3-dioxoisoindolin-4-yl)amino)acetamido)ethoxy)ethoxy)ethyl)piperazin-1-yl)pyridin-3-yl)pyrazine-2-carboxylate]: at MLKL [1], the “Degradation assay (Degradation %) 1 μM” value is reported as 18.61% and the “Degradation assay (Degradation %) 10 μM” value is listed as 30.36%. Besides, the Kd (as a rule, the concentration at which binding is half-saturated) on MLKL [2] is 50 nM.
Taken in the same sequence, the figures for `Nc1ncc(-c2cnn(C3CCN(CC4CCN(C(=O)CNc5cccc6c5C(=O)N(C5CCC(=O)NC5=O)C6=O)CC4)CC3)c2)nc1C(=O)N[C@@H](C(=O)Nc1ccc(F)cc1)c1ccccc1` (stereo partly drawn) [TDH-206, 3-amino-6-(1-(1-((1-((2-(2,6-dioxopiperidin-3-yl)-1,3-dioxoisoindolin-4-yl)glycyl)piperidin-4-yl)methyl)piperidin-4-yl)-1H-pyrazol-4-yl)-N-((R)-2-((4-fluorophenyl)amino)-2-oxo-1-phenylethyl)pyrazine-2-carboxamide] were 21.78%, 14.94% and 240 nM.
On to `Nc1ncc(-c2cnn(C3CCN(C(=O)CCCCCC#Cc4cccc5c4CN(C4CCC(=O)NC4=O)C5=O)CC3)c2)nc1C(=O)O[C@@H](C(=O)Nc1ccc(F)cc1)c1ccccc1` (stereo partly drawn) [TDH-423, (R)-2-((4-fluorophenyl)amino)-2-oxo-1-phenylethyl 3-amino-6-(1-(1-(8-(2-(2,6-dioxopiperidin-3-yl)-1-oxoisoindolin-4-yl)oct-7-ynoyl)piperidin-4-yl)-1H-pyrazol-4-yl)pyrazine-2-carboxylate], for which, at MLKL [1], the “Degradation assay (Degradation %) 1 μM” value was 61.54% and the “Degradation assay (Degradation %) 10 μM” value worked out at 39.01%. On MLKL [2], this compound displayed an equilibrium dissociation constant (Kd) of 9.8 nM.
`Nc1ncc(-c2ccc(N3CCN(CC4CCN(C(=O)C5CCN(c6cccc7c6C(=O)N(C6CCC(=O)NC6=O)C7=O)CC5)CC4)CC3)nc2)nc1C(=O)OC(C(=O)Nc1ccc(F)cc1)c1ccccc1` (stereo not shown) [TDH-230, 2-((4-fluorophenyl)amino)-2-oxo-1-phenylethyl 3-amino-6-(6-(4-((1-(1-(2-(2,6-dioxopiperidin-3-yl)-1,3-dioxoisoindolin-4-yl)piperidine-4-carbonyl)piperidin-4-yl)methyl)piperazin-1-yl)pyridin-3-yl)pyrazine-2-carboxylate] came in with a dissociation constant Kd on MLKL [2] of 140 nM. In the assay on FADD−/− Jurkat cells, the “Necroptosis inhibition assay (Rescue %) 1 μM” value came out at 7.4% and the “Necroptosis inhibition assay (Rescue %) 10 μM” value is on record as 10.64%.
The compound `Cl.Nc1ncc(-c2cnn(C3CCNCC3)c2)cc1C(=O)O[C@@H](C(=O)Nc1ccc(F)cc1)c1ccccc1` [TDH-112, (R)-2-((4-fluorophenyl)amino)-2-oxo-1-phenylethyl 2-amino-5-(1-(piperidin-4-yl)-1H-pyrazol-4-yl)nicotinate hydrochloride] showed a Kd on MLKL [2] of 2 nM. In addition, in the assay with FADD−/− Jurkat cells, the “Necroptosis inhibition assay (Rescue %) 1 μM” value was found to be 20.24%.
For the compound `Nc1ncc(C2=CCN(C(=O)COCCOCCNC(=O)CNc3cccc4c3C(=O)N(C3CCC(=O)NC3=O)C4=O)CC2)cc1C(=O)O[C@@H](C(=O)Nc1ccc(F)cc1)c1ccccc1` (stereo partly drawn) [TDH-084, (R)-2-((4-fluorophenyl)amino)-2-oxo-1-phenylethyl 6-amino-1′-(2-(2-(2-(2-((2-(2,6-dioxopiperidin-3-yl)-1,3-dioxoisoindolin-4-yl)amino)acetamido)ethoxy)ethoxy)acetyl)-1′,2′,3′,6′-tetrahydro-[3,4′-bipyridine]-5-carboxylate], on MLKL [2], the Kd stood at 19 nM. Besides, in the assay on FADD−/− Jurkat cells, the “Necroptosis inhibition assay (Rescue %) 1 μM” value is on record as 14.91% and the “Necroptosis inhibition assay (Rescue %) 10 μM” value is 3.95%.
Taken in the same sequence, the figures for `Nc1ncc(C2=CCN(C(=O)CCCCCNC(=O)CNc3ccc4c(c3)C(=O)N(C3CCC(=O)NC3=O)C4=O)CC2)cc1C(=O)O[C@@H](C(=O)Nc1ccc(F)cc1)c1ccccc1` (stereo partly drawn) [TDH-072, (R)-2-((4-fluorophenyl)amino)-2-oxo-1-phenylethyl 6-amino-1′-(6-(2-((2-(2,6-dioxopiperidin-3-yl)-1,3-dioxoisoindolin-5-yl)amino)acetamido)hexanoyl)-1′,2′,3′,6′-tetrahydro-[3,4′-bipyridine]-5-carboxylate] were 30 nM, 12.25% and 1.53%.
As to `Nc1ncc(C2=CCN(CCOCCOCCNC(=O)CNc3ccc4c(c3)C(=O)N(C3CCC(=O)NC3=O)C4=O)CC2)nc1C(=O)O[C@@H](C(=O)Nc1ccc(F)cc1)c1ccccc1` (stereo partly drawn) [TDH-107, (R)-2-((4-fluorophenyl)amino)-2-oxo-1-phenylethyl 3-amino-6-(1-(2-(2-(2-(2-((2-(2,6-dioxopiperidin-3-yl)-1,3-dioxoisoindolin-5-yl)amino)acetamido)ethoxy)ethoxy)ethyl)-1,2,3,6-tetrahydropyridin-4-yl)pyrazine-2-carboxylate], the Kd on MLKL [2] is 560 nM. In addition, in the assay on FADD−/− Jurkat cells, the “Necroptosis inhibition assay (Rescue %) 1 μM” value is reported as 24.34% and the “Necroptosis inhibition assay (Rescue %) 10 μM” value is 50.16%.
Compound `Nc1ncc(-c2cnn(C3CCN(CCCCCCNc4ccc5c(c4)C(=O)N(C4CCC(=O)NC4=O)C5=O)CC3)c2)nc1C(=O)O[C@@H](C(=O)Nc1ccc(F)cc1)c1ccccc1` (stereo partly drawn) [TDH-120, (R)-2-((4-fluorophenyl)amino)-2-oxo-1-phenylethyl 3-amino-6-(1-(1-(6-((2-(2,6-dioxopiperidin-3-yl)-1,3-dioxoisoindolin-5-yl)amino)hexyl)piperidin-4-yl)-1H-pyrazol-4-yl)pyrazine-2-carboxylate] gave a Kd on MLKL [2] of 1.7 nM. For the same compound, in the assay with FADD−/− Jurkat cells, the “Necroptosis inhibition assay (Rescue %) 1 μM” value was found to be 10.65%.
On MLKL [2], `Nc1ncc(-c2cnn(C3CCN(CCOCCOCCNC(=O)CNc4ccc5c(c4)C(=O)N(C4CCC(=O)NC4=O)C5=O)CC3)c2)nc1C(=O)N[C@@H](C(=O)Nc1ccc(F)cc1)c1ccccc1` (stereo partly drawn) [TDH-218, 3-amino-6-(1-(1-(2-(2-(2-(2-((2-(2,6-dioxopiperidin-3-yl)-1,3-dioxoisoindolin-5-yl)amino)acetamido)ethoxy)ethoxy)ethyl)piperidin-4-yl)-1H-pyrazol-4-yl)-N-((R)-2-((4-fluorophenyl)amino)-2-oxo-1-phenylethyl)pyrazine-2-carboxamide] returned a Kd of 46 nM. Moreover, in the assay with FADD−/− Jurkat cells, the “Necroptosis inhibition assay (Rescue %) 1 μM” value is 27.92% and the “Necroptosis inhibition assay (Rescue %) 10 μM” value is listed as 40.68%.
Taken in the same sequence, the figures for `Nc1ncc(-c2cnn(C3CCN(CC4CCN(C(=O)C5CCN(c6ccc7c(c6)C(=O)N(C6CCC(=O)NC6=O)C7=O)CC5)CC4)CC3)c2)nc1C(=O)N[C@@H](C(=O)Nc1ccc(F)cc1)c1ccccc1` (stereo partly drawn) [TDH-210, 3-amino-6-(1-(1-((1-(1-(2-(2,6-dioxopiperidin-3-yl)-1,3-dioxoisoindolin-5-yl)piperidine-4-carbonyl)piperidin-4-yl)methyl)piperidin-4-yl)-1H-pyrazol-4-yl)-N-((R)-2-((4-fluorophenyl)amino)-2-oxo-1-phenylethyl)pyrazine-2-carboxamide] were 300 nM, 7.5% and 10.08%.
